We go through six compounds from ChEMBL document CHEMBL6120938, “Covalent small-molecule inhibitors of SARS-CoV-2 Mpro: Insights into their design, classification, biological activity, and binding interactions” (Eur J Med Chem, 2024).

A short description of assay [1]: Inhibition of SARS-CoV-2 Main protease. Also noted: species or system Severe acute respiratory syndrome coronavirus 2.
A short description of assay [2]: Binding affinity to SARS-CoV-1 Main protease assessed as inhibition constant. On the set-up: species or system Severe acute respiratory syndrome-related coronavirus.
Assay [3] can be described thus: Inhibition of MERS-CoV Main protease extracted from Escherichia coli BL21 (DE3) incubated for 30 mins by fluorescence based analysis. Also noted: species or system Middle East respiratory syndrome-related coronavirus.
A short description of assay [4]: Binding affinity to SARS-CoV-1 3CL protease assessed as inhibition constant. On the set-up: species or system Severe acute respiratory syndrome-related coronavirus.
In assay [5] the target is T1, Replicase polyprotein 1ab (Severe acute respiratory syndrome coronavirus 2, UniProt P0DTD1). The assay is described as follows: Binding affinity to C-terminal GST-tagged full-length recombinant SARS-CoV-2 3CLpro extracted from Escherichia coli BL21(DE3) assessed as inhibition constant by ITC analysis.
Assay [6] has as its target T1, Replicase polyprotein 1ab. The experiment in a line: Inhibition of SARS-CoV-2 3CL protease using DabcylKTSAVLQSGFRKME-Edans amide as substrate preincubated for 30 mins followed by substrate addition and measured for 1 hrs by FRET analysis.
Assay [7] can be described thus: Inhibition of MERS-CoV Main protease using Dabcyl-KTSAVLQSGFRKM-Glu(Edans) as susbstrate measured for 1 hrs by fluorescence based analysis. On the set-up: species or system Middle East respiratory syndrome-related coronavirus.
Assay [8] can be described thus: Inhibition of N-terminal His6-tagged SARS-CoV-2 Main protease extracted from Escherichia coli BL21 (DE3) using MCA-Ala-Val-Leu-Gln-Ser-Gly-Phe-Arg-Lys(Dnp)-LsyNH2-trifluoroacetate salt as substrate incubated for 60 mins by FRET assay. Also noted: species or system Severe acute respiratory syndrome coronavirus 2.
The test system of assay [9] is SARS-CoV-2. The assay is described as follows: Antiviral activity against SARS-CoV-2 infected in African green monkey Vero cells assessed as reduction in virus-induced cytopathic effect incubated for 72 hrs by microscopic analysis. In kind it is functional, organism-based. To be noted: Severe acute respiratory syndrome coronavirus 2, Vero.
Assay [10] is described as follows: Inhibition of SARS-CoV-2 Main protease extracted from Escherichia coli BL21 (DE3) using MCA-Ala-Val-Leu-Gln-Ser-Gly-Phe-Arg-Lys(Dnp)-LsyNH2-trifluoroacetate salt as substrate pre-incubated for 30 mins followed by substrate addition and measured after 1 hrs by FRET assay. Also noted: species or system Severe acute respiratory syndrome coronavirus 2.
Assay [11] concerns SARS-CoV-2. The assay is described as follows: Antiviral activity against SARS-CoV-2 infected in African green Monkey Vero E6 cells assessed as reduction in viral replication measured after 48 hrs by qRT-PCR analysis. In kind it is functional, organism-based. To be noted: Severe acute respiratory syndrome coronavirus 2, Vero C1008, 48 h.
Assay [12] can be described thus: Inhibition of SARS-CoV-2 Main protease using MCA-Ala-Val-Leu-Gln-Ser-Gly-Phe-Arg-Lys(Dnp)-LsyNH2-trifluoroacetate salt as substrate pre-incubated for 30 mins and measured for 1 hr by FRET analysis. Also noted: species or system Severe acute respiratory syndrome coronavirus 2.

As for `COc1cccc2[nH]c(C(=O)N[C@@H](CC(C)C)C(=O)N[C@@H](C[C@@H]3CCNC3=O)C(=O)c3nc4ccccc4s3)cc12`, the concentration for half-maximal inhibition (IC50) in assay [1] worked out at 124 nM; in assay [3], 3100 nM. In [2], the inhibition constant Ki stood at 50 nM.
`CC(C)C[C@H](NC(=O)c1cc2ccccc2[nH]1)C(=O)N[C@@H](C[C@@H]1CCNC1=O)C(=O)c1nc2ccccc2s1`: the results for the Ki in [4] and in assay [5] were 4.1 nM and 14.5 nM, respectively.
In turn, `C=CCn1ccc2c(C(=O)Oc3cncc(Cl)c3)cccc21` yielded an IC50 in assay [6] of 70 nM.
In the case of `CC(C)C[C@H](NC(=O)OCC(C)(C)Sc1ccccc1)C(=O)N[C@H](C#N)C[C@@H]1CCNC1=O`, the IC50 in assay [7] came to 410 nM; in [8] it was 490 nM. In the assay with SARS-CoV-2 [9], the EC50 is 60 nM.
Consider `COc1ccc(Cn2[se]c3ccccc3c2=O)cn1`, for which the IC50 in [10] is 460 nM. Besides, in the assay on SARS-CoV-2 [11], the EC50 was found to be 3170 nM.
As to `CCC[C@H](NC(=O)[C@H](CC(C)C)NC(=O)OCc1ccccc1)C(=O)C(=O)NCc1ccccc1`, in assay [12], the half-maximal inhibitory concentration (IC50) was determined as 64500 nM.
